US10006020B2 (LESAFFRE ET COMPAGNIE, priority 2008, dated 2018)
Entries after “also recorded” stand apart in the source; their conditions may differ.

Legend:
[1] = target: Piromyces sp. E2 xylose isomerase, codon-optimized (plasmid p426H7-opt.XI-Piro) (Piromyces sp. E2, UniProt A0ACD6B9F5); experiment: Xylitol inhibition of the xylose isomerase, comparison enzyme; assay type: biochemical
Protocol: (§9) 50 ml of cultures of yeast cells were grown to the exponential phase in synthetic minimal medium with 2% glucose. The cells were harvested, washed twice in Tris-HCl buffer (pH 7.5) and disrupted by means of glass beads (Ø=0.45 nm) for 8 min on a Vibrax (Janke & Kunkel, Vibrax-VBR) at 4° C. Cell debris was removed by centrifugation for 10 min at 13,000 rpm. Subsequently, the supernatant was collected and filled up to 2 ml with cold Tris-HCl buffer (pH 7.5) and used as a raw extract for the protein determination and for the measurement of the enzyme activities or the xylitol inhibition.
(§10) The XI activity was performed at 30° C. in a reaction mix (100 mM of Tris-HCl, pH 7.5; 10 mM of MgCl2, 0.23 mM of NADH; 2 U of sorbitol dehydrogenase) with different raw extract concentrations. Additionally, different concentrations of xylitol (10-100 mM) were present in the reaction mix.

[2] = target: T1, Clostridium phytofermentans xylose isomerase (SEQ ID NO: 1) (Lachnoclostridium phytofermentans, UniProt A9KN98); experiment: Xylitol inhibition of the xylose isomerase (method names p426H7-XI-Clos); assay type: biochemical
T1 construct: raw extract
Protocol: as §9, §10

[3] = tested on: Piromyces sp. E2 xylose isomerase; conditions: result in words, prior art; cited from earlier work
[4] = target: T2, Clostridium phytofermentans xylose isomerase, codon-optimized form (plasmid p426H7-opt.XI-Clos; protein SEQ ID NO: 1, ORF SEQ ID NO: 3) (Lachnoclostridium phytofermentans, UniProt A9KN98); experiment: Xylitol inhibition of the xylose isomerase, codon-optimized XI gene; assay type: biochemical
Protocol: (§1) 50 ml of cultures of yeast cells were grown to the exponential phase in synthetic minimal medium with 2% glucose. The cells were harvested, washed twice in Tris-HCl buffer (pH 7.5) and disrupted by means of glass beads (Ø=[…]) for 8 min on a Vibrax (Janke & Kunkel, Vibrax-VBR) at 4° C. Cell debris was removed by centrifugation for 10 min at 13,000 rpm. Subsequently, the supernatant was collected and filled up to 2 ml with cold Tris-HCl buffer (pH 7.5) and used as a raw extract for the protein determination and for the measurement of the enzyme activities or the xylitol inhibition.
(§2) Recombinant yeast cells with the vector p426H7-opt.XI-Piro or the vector p426HXT7-6HIS, respectively, served as a comparison. […] The acceptance of NADH as a measured variable was determined spectrophotometrically at a wave length of 340 nm. The reaction was started by adding xylose. […]
(§3) K was determined via the equation Km′=Km′=Km*(1+i/Ki), i being the xylitol concentration used and Km′ being the apparent Km value at the corresponding xylitol concentration.
(§4) The strain CEN.PK2-1C transformed with the plasmid p426H7-opt.XI-Clos and p426H7-opt.XI-Piro, respectively, was grown over night in synthetic complete medium with 2% glucose and no uracil. Raw extracts were prepared and quantitative enzyme tests with constant xylitol concentrations of 10-100 mM were performed.

[5] = target: T2, Clostridium phytofermentans xylose isomerase, codon-optimized form (plasmid p426H7-opt.XI-Clos; protein SEQ ID NO: 1, ORF SEQ ID NO: 3); experiment: Xylose isomerase activity, enzyme kinetics with xylose (raw extract, sorbitol dehydrogenase coupled, NADH 340 nm), codon-optimized XI gene; assay type: biochemical; conditions: table 3; xylose 6.25-500 mM, 30° C., pH 7.5, raw extract
Protocol: (§5) The strain CEN.PK2-1C transformed with the plasmid p426H7-XI-Clos and p426H7-opt.XI-Clos, respectively, was grown over night in synthetic complete medium with 2% glucose and no uracil. Raw extracts were prepared and quantitative enzyme tests were performed. A representative result is shown. The values indicated in table 3 are average values from at least 3 independent measurements.
(§6) 50 ml of cultures of yeast cells were grown to the exponential phase in synthetic minimal medium with 2% glucose. The cells were harvested, washed twice in Tris-HCl buffer (pH 7.5) and disrupted by means of glass beads (Ø=[…]) for 8 min on a Vibrax (Janke & Kunkel, Vibrax-VBR) at 4° C. Cell debris was removed by centrifugation for 10 min at 13,000 rpm. […]
(§7) Recombinant yeast cells containing the empty vector p426HXT7-6HIS served as a comparison. […] The acceptance of NADH as a measured variable was determined spectrophotometrically at a wave length of 340 nm. […]
(§8) The strain CEN.PK2-1C transformed with the plasmid p426H7-XI-Clos and p426H7-opt.XI-Clos, respectively, was grown over night in synthetic complete medium with 2% glucose and no uracil. Raw extracts were prepared and quantitative enzyme tests were performed.

[6] = target: Clostridium phytofermentans xylose isomerase, native form (plasmid p426H7-XI-Clos; protein SEQ ID NO: 1, ORF SEQ ID NO: 2) (Lachnoclostridium phytofermentans, UniProt A9KN98); experiment: Xylose isomerase activity, enzyme kinetics with xylose (raw extract, sorbitol dehydrogenase coupled, NADH 340 nm), native XI gene; assay type: biochemical; conditions: xylose 6.25-500 mM, 30° C.
Protocol: as §5, §6, §7, §8

[7] = substrate: OC1OC[C@@H](O)[C@H](O)[C@H]1O; experiment: purified protein, by the assay type; conditions: other: xylose 6.25-500 mM, 30° C., pH 7.5, raw extract of CEN.PK2-1C
[8] = tested on: yeast strain MKY09; experiment: Growth test on agar plates with SC medium and 2% xylose as only carbon source; assay type: cell-based, S. cerevisiae; conditions: SC medium
From the text: Growth tests of recombinant S. cerevisiae strains, which include the bacterial D-xylose metabolism with the xylose isomerase from C. phytofermentans. […] The empty vector p426HXT7-6HIS (5A) served as the negative control.
In the yeast strain CEN.PK2-1C, all the genes of the non-oxidative pentose phosphate pathway as well as the xylulokinase (XKS1) and GAL2 were overexpressed. To this end, the endogenous promoters were replaced with the truncated HXT7 promoter.
The obtained PCR products were together with the vector p426HXT7-6HIS linearized with EcoRI/BamHI transformed in yeast and cloned via in vivo recombination into the plasmid between the HXT7 promoter or CYC1 terminator, respectively (FIG. 4). The sequence of the plasmids obtained was verified by means of restriction analysis. […] However, it was not possible to amplify the desired PCR product with the xylose isomerase from the organisms Streptomyces diastaticus and Leifsonia xyli. Both xylose isomerases thus could not be tested on functionality in yeast.
To this end, the codon-optimized XI-ORF was amplified with primers and cloned into the linearized vector p426HXT7-6HIS (see “Execution of the screen”). The sequence of the obtained plasmid p426H7-opt.XI-Clos was verified by means of restriction analysis. To test the functionality of the codon-optimized isomerase, the plasmid p426H7-opt.XI-Clos was transformed in the strain MKY09. […]

[9] = tested on: xylose isomerase from C. phytofermentans; experiment: Measurement of the xylitol inhibition of the xylose isomerase (raw extracts); assay type: biochemical, Clostridium phytofermentans; conditions: from the determined Ki values
Protocol: as §1, §2, §3, §4

Chain of Piromyces sp. E2 xylose isomerase, codon-optimized (plasmid p426H7-opt.XI-Piro) (A0ACD6B9F5 1-437): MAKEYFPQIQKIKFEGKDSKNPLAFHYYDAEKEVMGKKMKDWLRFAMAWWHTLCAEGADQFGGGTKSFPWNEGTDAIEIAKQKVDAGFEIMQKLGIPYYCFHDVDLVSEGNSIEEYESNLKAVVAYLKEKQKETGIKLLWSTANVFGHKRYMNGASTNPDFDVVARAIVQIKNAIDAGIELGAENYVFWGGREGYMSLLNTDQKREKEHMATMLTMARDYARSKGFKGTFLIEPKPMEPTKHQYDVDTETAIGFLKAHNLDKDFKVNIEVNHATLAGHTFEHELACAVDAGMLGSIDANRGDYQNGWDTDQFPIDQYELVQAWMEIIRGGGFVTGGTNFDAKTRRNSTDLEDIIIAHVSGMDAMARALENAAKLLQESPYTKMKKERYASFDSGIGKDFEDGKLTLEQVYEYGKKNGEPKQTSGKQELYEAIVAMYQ

## OC[C@@H](O)[C@H](O)[C@@H](O)CO [xylitol]
[1]
  Ki: 4.67 ± 1.77 mM
[2]
  Ki: 14.2 ± 1.48 mM
[2]; result in words
  xylitol inhibition: competitive inhibition; also recorded: significantly less inhibited by xylitol than the xylose isomerase from Piromyces sp.E2; also recorded: only slightly inhibited
[3]
  inhibition by xylitol: strongly inhibited
[4]
  Ki: 14.5 ± 1.08 mM

## OC1OC[C@@H](O)[C@H](O)[C@H]1O (some centres unmarked) [xylose]
[5]
  Vmax: 0.0344 μmol/min^−1 protein^−1) mg
[6]; table 3, pH 7.5, raw extract
  Vmax: 0.0076 μmol/min^−1 protein^−1) mg
[6]; pH 7.5, raw extract of CEN.PK2-1C
  Km: 61.8 ± 3.4 mM

B1: Clostridium phytofermentans xylose isomerase, native form (plasmid p426H7-XI-Clos; protein SEQ ID NO: 1, ORF SEQ ID NO: 2) (Lachnoclostridium phytofermentans … (protein)
chain: MKNYFPNVPEVKYEGPNSTNPFAFKYYDANKVVAGKTMKEHCRFALSWWHTLCAGGADPFGVTTMDRTYGNITDPMELAKAKVDAGFELMTKLGIEFFCFHDADIAPEGDTFEESKKNLFEIVDYIKEKMDQTGIKLLWGTANNFSHPRFMHGASTSCNADVFAYAAAKIKNALDATIKLGGKGYVFWGGREGYETLLNTDLGLELDNMARLMKMAVEYGRANGFDGDFYIEPKPKEPTKHQYDFDTATVLAFLRKYGLEKDFKMNIEANHATLAGHTFEHELAMARVNGAFGSVDANQGDPNLGWDTDQFPTDVHSATLAMLEVLKAGGFTNGGLNFDAKVRRGSFEFDDIAYGYIAGMDTFALGLIKAAEIIDDGRIAKFVDDRYASYKTGIGKAIVDGTTSLEELEQYVLTHSEPVMQSGRQEVLETIVNNILFR
[7]
  Km: 61.85 ± 3.41 mM
  Vmax: 0.0076 μmol/min^−1 mg protein^−1

B2: Clostridium phytofermentans xylose isomerase, codon-optimized form (plasmid p426H7-opt.XI-Clos; protein SEQ ID NO: 1, ORF SEQ ID NO: 3) (Lachnoclostridium … (protein)
chain: B1 chain
[7]
  Km: 66.01 ± 1^ mM
  Vmax: 0.0344 μmol/min^−1 mg protein^−1

B3: xylose isomerase from C. phytofermentans: prokaryotic xylose isomerase of Clostridium phytofermentans, protein SEQ ID NO: 1; gene form not specified at the place (protein)
chain: B1 chain
modifications: Clostridium phytofermentans
notes: gene form not specified at the place
[8]
  growth on plates containing xylose: good growth
[9]
  inhibition by xylitol compared with the xylose isomerase from Piromyces sp.E2: significantly less inhibited by xylitol
